Laboratory results from article PMC9920912, “In Vitro Binding Effects of the Ecdysone Receptor−Binding Domain and PonA in Plutella xylostella” (Molecules, 2023).

What was measured:
[1] = target: T1, ecdysone receptor (PxGST−EcR) (Plutella xylostella, UniProt G5CV07); assay: biochemical
T1 sequence (G5CV07 285-528): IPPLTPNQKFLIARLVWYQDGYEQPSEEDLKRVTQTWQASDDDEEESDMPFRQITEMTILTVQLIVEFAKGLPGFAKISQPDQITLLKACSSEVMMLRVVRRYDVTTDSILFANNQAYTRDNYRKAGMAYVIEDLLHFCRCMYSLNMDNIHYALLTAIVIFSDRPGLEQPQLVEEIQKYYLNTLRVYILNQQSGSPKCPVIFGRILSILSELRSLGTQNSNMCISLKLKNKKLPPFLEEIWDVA
T1 sequence (G5CV12 133-414 partner limits assumed): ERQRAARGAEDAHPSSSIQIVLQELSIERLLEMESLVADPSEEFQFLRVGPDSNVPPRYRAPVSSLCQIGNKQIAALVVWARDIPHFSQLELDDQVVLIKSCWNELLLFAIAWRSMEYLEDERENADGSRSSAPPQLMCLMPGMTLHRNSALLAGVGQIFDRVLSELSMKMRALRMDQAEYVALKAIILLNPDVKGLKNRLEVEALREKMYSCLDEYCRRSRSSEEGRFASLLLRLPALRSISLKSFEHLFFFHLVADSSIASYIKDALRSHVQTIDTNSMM

[2] = target: T1, ecdysone receptor (PxGST−EcR); assay: competitive radioligand binding, displacement of [3H]PonA from purified EcR/USP dimer; parameters: truncated LBD-containing functional domain (D and E domains) fused to GST; with USP (PxGST−USP)
[3] = target: T2, PxGST-EcR (Plutella xylostella ecdysone receptor, truncated LBD-containing functional domain fused to … (Plutella xylostella, UniProt G5CV07)); assay: TEM and zeta potential of co-incubated proteins, supported by enhanced [3H]PonA binding
T2 chain: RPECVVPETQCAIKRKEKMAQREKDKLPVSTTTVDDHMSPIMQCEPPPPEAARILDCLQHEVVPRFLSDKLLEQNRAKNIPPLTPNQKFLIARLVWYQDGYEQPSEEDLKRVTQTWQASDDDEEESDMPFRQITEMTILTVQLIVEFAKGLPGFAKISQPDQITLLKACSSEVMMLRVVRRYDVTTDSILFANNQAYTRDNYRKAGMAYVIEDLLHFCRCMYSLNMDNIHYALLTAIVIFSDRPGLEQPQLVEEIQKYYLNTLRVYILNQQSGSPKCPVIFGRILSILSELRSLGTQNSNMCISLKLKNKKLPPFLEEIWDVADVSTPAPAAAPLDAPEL

Molecule: CC(C)CC[C@@H](O)[C@](C)(O)[C@H]1CC[C@@]2(O)C3=CC(=O)[C@@H]4C[C@@H](O)[C@@H](O)C[C@]4(C)[C@H]3CC[C@]12C [PonA]
- Kd [1]: 2.3 nM

Molecule: CCc1ccc(C(=O)NN(C(=O)c2cc(C)cc(C)c2)C(C)(C)C)cc1 [tebufenozide]
- IC50 [2]: 80.6 nM

B1: PxGST-USP (Plutella xylostella ultraspiracle, truncated LBD-containing functional domain fused to glutathione-S-transferase) (protein)
chain: KREAVQEERQRAARGAEDAHPSSSIQIVLQELSIERLLEMESLVADPSEEFQFLRVGPDSNVPPRYRAPVSSLCQIGNKQIAALVVWARDIPHFSQLELDDQVVLIKSCWNELLLFAIAWRSMEYLEDERENADGSRSSAPPQLMCLMPGMTLHRNSALLAGVGQIFDRVLSELSMKMRALRMDQAEYVALKAIILLNPDVKGLKNRLEVEALREKMYSCLDEYCRRSRSSEEGRFASLLLRLPALRSISLKSFEHLFFFHLVADSSIASYIKDALRSHVQTIDTNSMM
- binding result [3]: binds
